Patent US20250123282A1, “METHODS FOR EVALUATION AND TREATMENT OF TYROSINE KINASE INHIBITOR (TKI)-RESISTANT ACUTE MYELOID LEUKEMIA” (LOMA LINDA UNIVERSITY, priority 2021, published 2025)

What was measured:
MV4-11 blasts = test: GILT combined with MIF inhibitor or CXCR2 inhibitor on MV4-11 blasts in vitro (FACS); assay type: cell-based, human; details: for most effective dose on MV4-11 based on the FACS analyses: dose-dependent experiments with or without 80 nM GILT
Method: (§1) Whether targeting the MIF-CXCR2 signaling pathway would effectively treat AML blasts were investigated. First, the combination of GILT with ribosomal protein S19 (RPS19) on MV4-11 blasts was tested in vitro. RPS19, a MIF inhibitor, has been reported to suppress cisplatin-activated MIF-CD74-NFκB signaling pathway in acute kidney injury. […] The combination of 80 nM GILT with 50 uM SB225002, a CXCR2-inhibitor (CXCR2-I) on MV4-11 blasts in vitro were examined. […] The anti-leukemic effect of combining GILT with CXCR2-I on primary BMMNC ex vivo were examined. […] There may be alternative cytokine pathways compensating for the defect of MIF-CXCR2 pathways.
(§2) For MIF in vitro experiments, different doses of MIF were added to 1 ml of 1×10^6 MV4-11 cells or RAW264.7 cells for each experimental group in 24-well plates. Two days after the one dose treatment, cells were then collected for either analyses by FACS and qPCR. As combination agents to treat blasts in vitro or ex vivo, one dose of 80 nM GILT with one dose of different inhibitors were added to 1 ml of 1×10^6 MV4-11 cells or 1 ml of 0.5-1×10^6 primary AML BMMNC for each experimental group in 24-well plates. Dose-dependent experiments of CXCR2 inhibitor and NFκB inhibitor with or without 80 nM GILT were performed. […] Three days after the one dose treatment, cells were then collected for either analyses by FACS and qPCR.
(§3) Flow Cytometry (FACS). Cells were harvested and examined for the expression of cell surface biomarkers (CD) and intracellular proteins by multichromatic FACS as previously described. About 1×10^4˜10^6 cells in 100 μl FACS buffer (PBS containing 1% FBS and 0.05% sodium azide) were stained with various fluorescence-conjugated antibodies specific for the desired cell surface proteins at 4° C. for 30 min. The surface-stained cells were then fixed and permeabilized using the appropriate reagents (e.g. the BD Pharmingen Cytofix/Cytoperm buffer) and stained with different fluorescence-conjugated antibodies specific for the desired intracellular proteins at 4° C. for 2 hours in the permeabilizing buffer (e.g. the BD Perm/Wash buffer). Concentrations of the Abs were used per the manufacturers' recommendations. Finally, the cells were washed twice in the permeabilizing buffer and twice in the FACS buffer before being analyzed on the BD FACSAria II. Data was analyzed using the FlowJo software (Tree Star Inc., Ashland, OR).

primary AML BMMNC = test: Ex vivo combination treatment of primary AML BMMNC (FACS, imaging, qPCR); assay type: cell-based, human; details: 80 nM GILT
Method: as §1
The combination of 80 nM GILT and 50 uM BAY11-7821 (a NFκB-I) was tested as a novel therapeutic approach for AML.
Next, the anti-leukemic effect of the combination was examined on primary BMMNC from refractory AML patients (Patient #7, Table 4).
Human Samples. AML bone marrow (BM) mononuclear cells (BMMNC) (Patients #1-7, Table 4) were obtained from the City of Hope National Medical Center (COHNMC). All donor patients signed an informed consent form. Sample acquisition was approved by the Institutional Review Boards at the LLUMC and the COHNMC in accordance with an assurance filed with and approved by the Department of Health and Human Services, and it met all requirements of the Declaration of Helsinki.
as §2, §3
RNA Isolation and Real-Time Polymerase Chain Reaction (qPCR) analysis. MV4-11 and MOLM-14 cells were cultured with the presence of TKI drugs for 72 hours or re-plated 28 days after the treatment of TKI drugs. Cells were isolated for RNA isolation and qPCR analysis as previously described. Total RNA was isolated using the RNeasy Micro Kit (Qiagen) according to the manufacturer's instruction. First-strand cDNA was synthesized using the SuperScript III Reverse Transcriptase (Invitrogen; Life Technologies). With an Applied Biosystems 7900HT Real-Time PCR machine, qPCR was performed and analyzed using known primers for the specific markers. The PCR conditions were 10 minutes at 95° C. followed by 40 cycles of 10 seconds at 95° C. and 15 seconds at 60° C. The relative expression level of a gene was determined using the ΔΔCt method and normalized to GAPDH.

MV4-11 cells [1] = test: FACS time course of CD44+pBAD+ and Ki67+CD33+CD44+ populations in TKI-treated MV4-11; assay type: cell-based, human
Source text: (§4) To follow the cell fate of TKI-treated MV4-11 and MOLM-14, culturing of blasts were continued by performing medium change every 2-3 days. […] The BAD protein is a pro-apoptotic member of the BCL-2 gene family, which is involved in initiating apoptosis. Dephosphorylated BAD is pro-apoptotic by binding BCL-2 and inactivating BCL-2, while phosphorylated BAD (pBAD) is anti-apoptotic by leaving BCL-2 free to inhibit BAX-triggered apoptosis.
(§5) Small Molecular Inhibitors and in vitro & ex vivo Treatment. […] The dose of 80 nM for the four TKIs was selected based on their dose-dependent cytotoxicity in previous reports. […] Both GILT and QUIZ were reported to start to suppress the tumorigenic clustering and c-Kit at the dose of 80 nM. […] The combination of 5 μM 5-Azacitidine (AZA) and 80 nM 1α,25-Dihydroxyvitamin D3 (VD3) was added to the experimental group similar to the previous report. As combination agents to treat blasts in vitro, one dose of 80 nM GILT with one dose of either 100 nM Venetoclax (BCL2 inhibitor), 10 μM (R)-Lisofylline (STAT4 inhibitor), 100 nM AZD1208 (PIM inhibitor), 500 nM PF-06826647 (TYK2 inhibitor), or 500 nM AT9283 (JAK2/3 inhibitor) were added to 1 ml of 1×10^6 cells for each experimental group in 24 well plates. Three days after the one dose treatment, cells were then collected for either analyses by FACS and qPCR, or re-plated into 24 well plates for continued culture. At different time points, re-plated cells were collected for analyses by FACS and qPCR. Medium change was performed every 2-3 days.
as §3

MV4-11 = details: 100 nM, cited from earlier work
MV4-11 cells [2] = test: FACS of TKI-treated MV4-11 cells in vitro (viable blasts, Ki67, pBAD); assay type: cell-based, human; details: 3 days after the treatment
Method: (§6) The AML cells were analyzed at different time points after exposure to TKI (3 days, 10 days, 20 days, and 28 days). […] After 3 days, FACS of the surface markers and intracellular proteins, including CD14, CD33, CD44, and Ki67, were performed. FIGS. 1A-1E depicts therapeutic effect of different TKIs on MV4-11 and MOLM-14 cells in vitro (N=6). […] The circles indicate the group of viable blasts located in a FACS plot and green arrows indicate the dying tendency of blasts which will become positive for viability dye during the next few days. FIGS. 1C and 1D are graphical representations of the cumulative FACS percentage data of viable MV4-11 and MOLM-14 cells. *P<0.05. […]
as §3, with “Cells were harvested and examined for the expression of cell surface biomarkers (CD) and intracellular proteins by multichromatic FACS as previously described.” left out, “Concentrations of the Abs were used per the manufacturers' recommendations.” left out, “Data was analyzed using the FlowJo software (Tree Star Inc., Ashland, OR).” left out

MOLM-14 cells [3] = test: FACS of TKI-treated MOLM-14 cells in vitro (viable blasts, pBAD); assay type: cell-based, human; details: 3 days after the treatment
Method: as §6
as §3, with “Cells were harvested and examined for the expression of cell surface biomarkers (CD) and intracellular proteins by multichromatic FACS as previously described.” left out, “Concentrations of the Abs were used per the manufacturers' recommendations.” left out, “Data was analyzed using the FlowJo software (Tree Star Inc., Ashland, OR).” left out

MV4-11 cells [4] = test: Phase-bright imaging of re-growth of TKI-treated MV4-11; assay type: cell-based, human
Source text: as §4, §5
Imaging Acquisition. Phase-bright images were taken using an Olympus 1X71 inverted microscope and were processed using an Olympus cellSens Dimension 1.15 Imaging Software.

MOLM-14 cells [5] = test: Phase-bright imaging of re-growth of TKI-treated MOLM-14; assay type: cell-based, human; details: 10 days after TKI treatment
Source text: as §4
as §5, with “At different time points, re-plated cells were collected for analyses by FACS and qPCR. Medium change was performed every 2-3 days.” left out

MV4-11 cells [6] = test: Recombinant human MIF added to MV4-11 cultures (FACS Ki67, qPCR); assay type: cell-based
Method: (§7) To examine the role of MIF in the proliferation of AML blasts, different doses of recombinant human MIF peptides were added to the cell cultures of MV4-11 (AML blast cell line). […] To investigate how MIF affects immune cells, MIF was tested on RAW264.7 (a macrophage cell line). […] The findings are consistent with a previous report that primary AML blasts constitutively express MIF, stimulating bone marrow mesenchymal cells to release CXCL8 (IL-8), a ligand that also binds to CXCR2, to sustain blasts' proliferation. In addition, CXCL1/5/8 were routinely and highly released (a median level >1000 pg/mL) in the supernatants of culturing naïve AML patient cells ex vivo.
For MIF in vitro experiments, different doses of MIF were added to 1 ml of 1×10^6 MV4-11 cells or RAW264.7 cells for each experimental group in 24-well plates. Two days after the one dose treatment, cells were then collected for either analyses by FACS and qPCR. […]
as §3, with “Cells were harvested and examined for the expression of cell surface biomarkers (CD) and intracellular proteins by multichromatic FACS as previously described.” left out, “Concentrations of the Abs were used per the manufacturers' recommendations.” left out
RNA Isolation and Real-Time Polymerase Chain Reaction (qPCR) analysis. […] With an Applied Biosystems 7900HT Real-Time PCR machine, qPCR was performed and analyzed using known primers for the specific markers. […] The relative expression level of a gene was determined using the ΔΔCt method and normalized to GAPDH.

[7] = tested on: RAW264.7 (a macrophage cell line); test: Recombinant human MIF added to RAW264.7 cultures (FACS Ki67); assay type: cell-based; details: 5 ng/ml MIF; 2 days
Method: as §7, with “vivo. […]” for “vivo.”
as §3, with “Cells were harvested and examined for the expression of cell surface biomarkers (CD) and intracellular proteins by multichromatic FACS as previously described.” left out, “Concentrations of the Abs were used per the manufacturers' recommendations.” left out, “Data was analyzed using the FlowJo software (Tree Star Inc., Ashland, OR).” left out

[8] = primary BMMNC ex vivo (Patient #2 and #3), 50 uM CXCR2-I
[9] = MV4-11, 10 days after TKI treatment
[10] = MV4-11, 20 days after TKI treatment
[11] = MV4-11, 28 days after TKI treatment
[12] = newly diagnosed AML, Patient #5, 50 uM BAY11-7821

Molecule: O=C(Nc1ccc([N+](=O)[O-])cc1O)Nc1ccccc1Br [CXCR2-I, SB225002]
- percentage of Ki67+CD44+ blasts (MV4-11 blasts; MV4-11, 80 nM GILT, 50 uM SB225002, 3 days): 5.7%
- most effective dose on MV4-11 based on the FACS analyses (MV4-11 blasts): 50 µM
- percentage of Ki67+CD13+ blasts (primary AML BMMNC; [8]): 14.3%
- percentage of viable CD33+CD13+ primary blasts (primary AML BMMNC; [8]): 3.11%

Molecule: CO[C@@H]1[C@H](N(C)C(=O)c2ccccc2)C[C@H]2O[C@]1(C)n1c3ccccc3c3c4c(c5c6ccccc6n2c5c31)C(=O)NC4 [MIDO, Midostaurin]
- population of viable CD44+pBAD+ cells (MV4-11 cells [1]; [9]): 0.2%
- population of viable Ki67+CD33+CD44+ cells (MV4-11 cells [1]; [9]): 2.54%
- population of viable CD44+pBAD+ cells (MV4-11 cells [1]; [10]): 0.43%
- population of viable Ki67+CD33+CD44+ cells (MV4-11 cells [1]; [10]): 1.41%
- population of viable CD44+pBAD+ cells (MV4-11 cells [1]; [11]): 1.23%
- population of viable Ki67+CD33+CD44+ cells (MV4-11 cells [1]; [11]): 2.54%
- reduction of viable MV4-11 (MV4-11): 60%

Molecule: Cc1ccc(S(=O)(=O)C=CC#N)cc1 [NFκB-I, BAY11-7082 (BAY11-7821)]
- most effective dose on MV4-11 based on the FACS analyses (MV4-11 blasts): 50 µM
- percentage of Ki67+CD33+ proliferating blasts (primary AML BMMNC; [12]): 25%
- percentage of viable CD33+CD13+ primary blasts (primary AML BMMNC; [12]): 0.14%

Molecule: CNC(=O)c1cc(Oc2ccc(NC(=O)Nc3ccc(Cl)c(C(F)(F)F)c3)cc2)ccn1 [SORA, Sorafenib]
- pBAD expression in MV4-11 (FACS) (MV4-11 cells [2]): significant increase
- pBAD expression in MOLM-14 (FACS) (MOLM-14 cells [3]): significant increase
- population of viable CD44+pBAD+ cells (MV4-11 cells [1]; [9]): 0.24%
- population of viable Ki67+CD33+CD44+ cells (MV4-11 cells [1]; [9]): 2.54%
- population of viable CD44+pBAD+ cells (MV4-11 cells [1]; [10]): 0.8%
- population of viable Ki67+CD33+CD44+ cells (MV4-11 cells [1]; [10]): 1.62%
- population of viable Ki67+CD33+CD44+ cells (MV4-11 cells [1]; [11]): 2.82%
- newly formed blast clusters (morphology) (MV4-11 cells [4]; 3 days after TKI treatment): observed
- re-growth / tumorigenic clusters of MV4-11 (MV4-11 cells [4]; 10 days after TKI treatment): grew confluent
- re-growth / tumorigenic clusters of MOLM-14 (MOLM-14 cells [5]): grew confluent
- apoptosis and cell cycle arrest in MV4-11 (MV4-11; 72-hour treatment in vitro): significantly induce

B1: MIF: recombinant human macrophage migration inhibitory factor (Peprotech 300-69) (protein, UniProt P14174 2-115, looked up)
Macrophage migration …: PMFIVNTNVPRASVPDGFLSELTQQLAQATGKPPQYIAVHVVPDQLMAFGGSSEPCALCSLHSIGKIGGAQNRSYSKLLCGLLAERLRISPDRVYINYYDMNAANVGWNNSTFA
- MV4-11 proliferation (percentage of Ki67+) (MV4-11 cells [6]; 5 ng/ml MIF, the lowest dose, 2 days): induce MV4-11's proliferation
- gene expressions of CXCL1, CXCL5, CXCL8 (IL-8), CDK4 and CYCLIN E1 (MV4-11 cells [6]; MV4-11, different doses of MIF, qPCR): effectively induce
- CXCR2 expression in MV4-11 blasts (MV4-11 cells [6]; exogenous recombinant MIF in vitro): effectively induced
- RAW264.7 proliferation (Ki67) [7]: effectively suppressed
